# According to ChEMBL document CHEMBL2396555, “Synthesis and acrosin inhibitory activities of 5-phenyl-1H-pyrazole-3-carboxylic acid amide derivatives” (Bioorg Med Chem Lett, 2013):
# Target: Acrosin (Homo sapiens, UniProt P10323)
# Assay: Inhibition of human sperm acrosin using BAPNA as substrate after 3 hrs by spectrophotometric analysis
# Acrosin, sequence (P10323 20-42 limits assumed): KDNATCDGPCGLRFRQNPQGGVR
# Acrosin, sequence (P10323 43-343 limits assumed): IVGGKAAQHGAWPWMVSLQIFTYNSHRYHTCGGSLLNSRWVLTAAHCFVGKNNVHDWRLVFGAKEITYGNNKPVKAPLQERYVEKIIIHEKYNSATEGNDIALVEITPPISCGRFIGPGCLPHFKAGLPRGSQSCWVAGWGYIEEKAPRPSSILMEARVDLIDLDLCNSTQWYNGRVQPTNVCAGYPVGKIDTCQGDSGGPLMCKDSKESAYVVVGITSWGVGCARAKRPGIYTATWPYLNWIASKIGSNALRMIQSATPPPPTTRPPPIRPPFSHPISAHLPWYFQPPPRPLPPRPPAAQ
row,Compound,IC50
1,O=C(NCCO)c1cc(-c2ccccc2)[nH]n1,2800 µM
2,O=C(NCCO)c1cc(-c2cccc([N+](=O)[O-])c2)[nH]n1,760 µM
3,CC(O)CNC(=O)c1cc(-c2cccc([N+](=O)[O-])c2)[nH]n1 (stereo not drawn),1830 µM
4,O=C(NC(CO)(CO)CO)c1cc(-c2ccccc2)[nH]n1,940 µM
5,O=C(NCCCO)c1cc(-c2ccc([N+](=O)[O-])cc2)[nH]n1,3070 µM
6,O=C(NCCOCCO)c1cc(-c2ccc([N+](=O)[O-])cc2)[nH]n1,2070 µM
7,CC(O)CNC(=O)c1cc(-c2ccc([N+](=O)[O-])cc2)[nH]n1 (stereo not drawn),2950 µM
8,O=C(NCCOCCO)c1cc(-c2cccc([N+](=O)[O-])c2)[nH]n1,9100 µM
9,O=C(NCCCO)c1cc(-c2cccc([N+](=O)[O-])c2)[nH]n1,780 µM
10,O=C(NCCO)c1cc(-c2ccc([N+](=O)[O-])cc2)[nH]n1,2700 µM
11,CC(O)CNC(=O)c1cc(-c2ccc(Br)cc2)[nH]n1 (stereo not drawn),330 µM
12,O=C(NCCOCCO)c1cc(-c2ccc(Br)cc2)[nH]n1,10000 µM
13,O=C(NCCCO)c1cc(-c2ccc(Br)cc2)[nH]n1,380 µM
14,O=C(c1cc(-c2ccccc2)[nH]n1)N(CCO)CCO,1700 µM
15,COc1ccc(-c2cc(C(=O)NCCO)n[nH]2)cc1,90 µM
16,CC(O)CN(CC(C)O)C(=O)c1cc(-c2ccccc2)[nH]n1 (stereo not drawn),10 µM
17,CC(O)CN(CC(C)O)C(=O)c1cc(-c2ccc([N+](=O)[O-])cc2)[nH]n1 (stereo not drawn),1210 µM

row,Compound,IC50
1,O=Cc1cc(-c2ccc(Cl)cc2Cl)on1,390 µM
2,O=C(NCCO)c1cc(-c2ccc(Br)cc2)[nH]n1,530 µM
3,O=C(c1cc(-c2ccc(Br)cc2)[nH]n1)N(CCO)CCO,1520 µM
4,O=C(NC(CO)(CO)CO)c1cc(-c2ccc([N+](=O)[O-])cc2)[nH]n1,5220 µM
5,O=C(NCCCO)c1cc(-c2ccccc2)[nH]n1,540 µM
6,CN(CCO)C(=O)c1cc(-c2ccc([N+](=O)[O-])cc2)[nH]n1,2000 µM
7,O=C(NC(CO)(CO)CO)c1cc(-c2cccc([N+](=O)[O-])c2)[nH]n1,760 µM
8,CN(CCO)C(=O)c1cc(-c2cccc([N+](=O)[O-])c2)[nH]n1,790 µM
9,COc1ccc(-c2cc(C(=O)N(C)CCO)n[nH]2)cc1,410 µM
10,CC(CO)NC(=O)c1cc(-c2ccc(Br)cc2)[nH]n1 (stereo not drawn),880 µM
11,COc1ccc(-c2cc(C(=O)NCCOCCO)n[nH]2)cc1,6020 µM
12,O=C(c1cc(-c2cccc([N+](=O)[O-])c2)[nH]n1)N(CCO)CCO,2400 µM
13,CC(CO)NC(=O)c1cc(-c2ccccc2)[nH]n1 (stereo not drawn),3000 µM
14,CC(C)(CO)NC(=O)c1cc(-c2ccc([N+](=O)[O-])cc2)[nH]n1,1875 µM
15,O=C(c1cc(-c2ccc([N+](=O)[O-])cc2)[nH]n1)N(CCO)CCO,5600 µM
16,CC(O)CNC(=O)c1cc(-c2ccccc2)[nH]n1 (stereo not drawn),60 µM
